In PMC3297008, “Novel Marine Phenazines as Potential Cancer Chemopreventive and Anti-Inflammatory Agents” (Marine Drugs, 2012):
Like-named read-outs stand apart in the source and are kept apart here.

Tests used:
COX-2 mRNA expression = COX-2 mRNA expression in LPS-treated RAW 264.7 cells (real time quantitative PCR); format: cell-based; conditions: 50 µM
Description: Figure 2 Effect of phenazines on COX-2 (black) and iNOS (gray) mRNA expression in RAW 264.7 cells. Total RNA was isolated using the TRIZOL® Reagent method (Invitrogen) from RAW 264.7 cells (2 × 10^5 cells/well) after treatment with samples. cDNA was synthesized using the RT^2 First Strand Kit (C-03, SA Biosciences) protocol. cDNA was used for quantitative real time PCRs with fluorescent Power SyBR® Green PCR master mix (Applied Biosystems), employing GAPDH, iNOS, COX-2 specific primers, and a 7300 Real Time PCR System (Applied Biosystems). The results were derived from two independent RNA preparations employing identical triplicates in each analysis and quantitated using GAPDH as the internal control, following the manufacturer’s instructions. (A) GAPDH standard curve for quantitation of iNOS and COX-2 expression; (B) Levels of COX-2 (black) and iNOS (gray) mRNA expression. The concentration and duration of treatment had no significant effect on the viability of Raw 264.7 cells.
Total mRNA samples were isolated, and cDNA was amplified with specific primers, using GAPDH as housekeeping gene. LPS induced the expression of COX-2 and iNOS mRNA by approximately 11- and 24-fold, respectively. […]
RAW 264.7 cells (2 × 10^5 cells/well) were treated with test samples and total RNA was isolated with TRIZOL® Reagent (Invitrogen). […] The results were derived from two independent RNA preparations employing identical triplicates in each analysis and quantified using GAPDH as the internal control, following the manufacturer’s instructions. The fluorescence intensity (Rn) corresponding to the cycle of threshold value (Ct) is used to quantitate a given mRNA, employing the GAPDH standard curve (Figure 3A). The equation Y = −3.9408 X + 31.791 was used to quantify the relative mRNA content, where Y represents the number of cycles corresponding to the Ct (i.e., fluorescence intensity for a given mRNA species), and X represents the log copy number (C0) from which the relative content of mRNA was quantitated. […]

P388 cells = tested on: P388 cells; design: method as in PMID 2753825; conditions: cited from earlier work
L1210 cells = tested on: L1210 cells; design: method as in PMID 2753825; conditions: cited from earlier work
5-α-reductase [1] = tested on: 5-α-reductase; design: method as in PMID 2503481; conditions: derived from rat prostate; cited from earlier work
5-α-reductase [2] = tested on: 5-α-reductase; design: method as in PMID 2503481; conditions: derived from dog prostate; cited from earlier work
5-α-reductase [3] = tested on: 5-α-reductase; design: method as in PMID 2503481; conditions: derived from human prostate; cited from earlier work

Row | Structure (SMILES) | suppression of COX-2 mRNA expression (COX-2 mRNA expression) [%] | growth inhibition of P388 cells in culture (P388 cells) | growth inhibition of L1210 cells in culture (L1210 cells) | inhibition of 5-α-reductase (5-α-reductase [1]) | inhibition of 5-α-reductase (5-α-reductase [2]) | inhibition of 5-α-reductase (5-α-reductase [3])
1 | CC1=C(Cn2c3cccc(=O)c-3nc3ccccc32)CCC(C)(C)C1 [Lavanducyanin 3, lavanducyanin] | 51 | strongly inhibits the growth | strongly inhibits the growth | competitively inhibits | competitively inhibits | competitively inhibits
2 | CC(C)=CCn1c2ccc(Br)c(=O)c-2nc2ccccc21 [Phenazine 2] | 50 | – | – | – | – | –
3 | CC1=C(Cn2c3ccc(Br)c(=O)c-3nc3ccccc32)CCC(C)(C)C1 [Phenazine 1] | 40 | – | – | – | – | –
